Measurements as given in patent US9872499B2, “Virus-inactivating composition containing low-molecular weight compound and arginine” (priority 2010, dated 2018).

Key:
[1] = test system: influenza virus A/Aichi (H3N2); experiment: Virus inactivating reaction with influenza virus A in sample solution, remaining infectious virus by plaque assay; assay type: cell-based; settings: for Relative Inactivating Efficiency: relative to 0.01% CAE alone
[2] = test system: herpes simplex virus type 1 (HSV-1) strain F; experiment: Virus inactivating reaction with HSV-1 in sample solution, remaining infectious virus by plaque assay; assay type: cell-based
[3] = 0.1 mM catechin compound alone, pH 4.0, 30° C. 5 min
[4] = 0.1 mM catechin compound, 0 M arginine, pH 4.0, relative to 0.1 mM of the same compound alone
[5] = 0.1 mM catechin compound, 0.2 M arginine, pH 4.0, relative to 0.1 mM of the same compound alone
[6] = 0.5 mM catechin compound, 0 M arginine, pH 4.0, relative to 0.1 mM of the same compound alone

## cocoyl arginine ethyl ester [CAE]
[1]; 0.01% CAE alone, pH 4.8, 30° C. 5 min
  viral titer after inactivation, % of that before inactivation: 3.1%
[1]; 0.01% CAE, 0 M arginine, pH 4.8, 10 mM sodium citrate
  Relative Inactivating Efficiency: 1 Times
[1]; 0.01% CAE, 0.115 M arginine, pH 4.8
  Relative Inactivating Efficiency: 82 Times
[1]; 0.02% CAE, 0.115 M arginine, pH 4.8
  Relative Inactivating Efficiency: 63 Times
[2]; 0.005% CAE alone, pH 4.0, 30° C. 5 min
  viral titer after inactivation, % of that before inactivation: 0.4%
[2]; 0.005% CAE, 0 M arginine, pH 4.0, 10 mM sodium citrate, relative to 0.005% CAE alone
  Relative Inactivating Efficiency: 1 times
[2]; 0.005% CAE, 0.058 M arginine, pH 4.0, relative to 0.005% CAE alone
  Relative Inactivating Efficiency: 1.13 times
[2]; 0.005% CAE, 0.115 M arginine, pH 4.0, relative to 0.005% CAE alone
  Relative Inactivating Efficiency: 20 times

## N=C(N)NCCC[C@H](N)C(=O)O [Arginine, arginine]
[2]; 0% CAE, 0.058 M arginine alone, pH 4.0, 10 mM sodium citrate, relative to 0.005% CAE alone
  Relative Inactivating Efficiency: 0.03 times
[2]; pH 4
  Relative Inactivating Efficiency: 1075 times

## (−)epigallocatechin gallate
[2]; [3]
  remaining viral titer, % of the viral amount before inactivation: 0.02%
[2]; [4]
  Relative Inactivating Efficiency: 1 times
[2]; [5]
  Relative Inactivating Efficiency: 12 times
[2]; [6]
  Relative Inactivating Efficiency: 268 times

## O=C1O[C@H]([C@@H](O)CO)C(=O)C1=O [Dehydroascorbic acid, dehydroascorbic acid]
[2]; 0.1 mM dehydroascorbic acid alone, pH 4.0, 30° C. 5 min
  remaining viral titer, % of the viral amount before inactivation: 7.3%
[2]; 0.1 mM dehydroascorbic acid, 0 M arginine, pH 4.0, relative to 0.1 mM compound alone
  Relative Inactivating Efficiency: 1 times
[2]; 0.1 mM dehydroascorbic acid, 0.2 M arginine, pH 4.0, relative to 0.1 mM compound alone
  Relative Inactivating Efficiency: 248 times
[2]; 1 mM dehydroascorbic acid, 0 M arginine, pH 4.0, relative to 0.1 mM compound alone
  Relative Inactivating Efficiency: 1 times
[2]; 1 mM dehydroascorbic acid, 0.2 M arginine, pH 4.0, relative to 0.1 mM compound alone
  Relative Inactivating Efficiency: 1440 times
[2]; 10 mM dehydroascorbic acid, 0 M arginine, pH 4.0, relative to 0.1 mM compound alone
  Relative Inactivating Efficiency: 1 times
[2]; 10 mM dehydroascorbic acid, 0.2 M arginine, pH 4.0, relative to 0.1 mM compound alone
  Relative Inactivating Efficiency: >7200 times
[2]; 10 mM dehydroascorbic acid, 0.2 M arginine, pH 4.0, relative to 0.1 mM compound alone, listed as dehydroascorbic acid
  Relative Inactivating Efficiency: more than 7200 times

## O=C(O[C@@H]1Cc2c(O)cc(O)cc2O[C@@H]1c1ccc(O)c(O)c1)c1cc(O)c(O)c(O)c1 [(−)epicatechin gallate]
[2]; [3]
  remaining viral titer, % of the viral amount before inactivation: 0.04%
[2]; [4]
  Relative Inactivating Efficiency: 1 times
[2]; [5]
  Relative Inactivating Efficiency: 59 times
[2]; [6]
  Relative Inactivating Efficiency: 27 times

## [Cl-].[Na+] [NaCl, reference compound]
[2]; pH 4
  Relative Inactivating Efficiency: 0.011 times

## O=C(O)/C=C/c1ccc(O)c(O)c1 [Caffeic acid, caffeic acid]
[2]; 0.1 mM caffeic acid alone, pH 4.0 (Comparative Example 2)
  viral titer after inactivation, % of that before inactivation: 0.13%
[2]; 0.1 mM caffeic acid alone, pH 4.0, 30° C. 5 min (Example 1)
  viral titer after inactivation, % of the viral amount before inactivation: 0.3%
[2]; 0.1 mM caffeic acid, 0 M NaCl, pH 4.0, 20 mM sodium acetate, relative to 0.1 mM caffeic acid alone
  Relative Inactivating Efficiency: 1 times
[2]; 0.1 mM caffeic acid, 0 M arginine, pH 4.0, 30° C. 5 min, relative to 0.1 mM caffeic acid alone
  Relative Inactivating Efficiency: 1 times
[2]; 0.1 mM caffeic acid, 0.2 M NaCl, pH 4.0, relative to 0.1 mM caffeic acid alone
  Relative Inactivating Efficiency: 0.010 times
[2]; 0.1 mM caffeic acid, 0.2 M NaCl, pH 4.0, relative to 0.1 mM caffeic acid alone, listed as caffeic acid
  Relative Inactivating Efficiency: 0.01 times
[2]; 0.1 mM caffeic acid, 0.2 M arginine, pH 4.0, 30° C. 5 min, relative to 0.1 mM caffeic acid alone
  Relative Inactivating Efficiency: 1.5 times
[2]; 0.5 mM caffeic acid, 0 M arginine, pH 4.0, 30° C. 5 min, relative to 0.1 mM caffeic acid alone
  Relative Inactivating Efficiency: 1.3 times
[2]; 0.5 mM caffeic acid, 0.2 M NaCl, pH 4.0, relative to 0.1 mM caffeic acid alone
  Relative Inactivating Efficiency: 0.009 times
[2]; 0.5 mM caffeic acid, 0.2 M arginine, pH 4.0, 30° C. 5 min, relative to 0.1 mM caffeic acid alone
  Relative Inactivating Efficiency: 3.3 times
[2]; 1 mM caffeic acid, 0 M arginine, pH 4.0, 30° C. 5 min, relative to 0.1 mM caffeic acid alone
  Relative Inactivating Efficiency: 1.4 times
[2]; 1.0 mM caffeic acid, 0.2 M NaCl, pH 4.0, relative to 0.1 mM caffeic acid alone
  Relative Inactivating Efficiency: 0.007 times
[2]; 1 mM caffeic acid, 0.2 M arginine, pH 4.0, 30° C. 5 min, relative to 0.1 mM caffeic acid alone
  Relative Inactivating Efficiency: 7.8 times

## O=C(/C=C/c1ccc(O)c(O)c1)OCCc1ccccc1 [Caffeic acid phenethyl ester, caffeic acid phenethyl ester]
[2]; 0.01 mM caffeic acid phenethyl ester alone, pH 4.0, 30° C. 5 min
  remaining viral titer, % of that obtained before inactivation: 0.3%
[2]; 0.01 mM caffeic acid phenethyl ester, 0 M arginine, pH 4.0, relative to 0.01 mM compound alone
  Relative Inactivating Efficiency: 1 times
[2]; 0.01 mM caffeic acid phenethyl ester, 0.2 M arginine, pH 4.0, relative to 0.01 mM compound alone
  Relative Inactivating Efficiency: 8 times
[2]; 0.05 mM caffeic acid phenethyl ester, 0 M arginine, pH 4.0, relative to 0.01 mM compound alone
  Relative Inactivating Efficiency: 1 times
[2]; 0.05 mM caffeic acid phenethyl ester, 0.2 M arginine, pH 4.0, relative to 0.01 mM compound alone
  Relative Inactivating Efficiency: 122 times
[2]; 0.1 mM caffeic acid phenethyl ester, 0 M arginine, pH 4.0, relative to 0.01 mM compound alone
  Relative Inactivating Efficiency: 1 times
[2]; 0.1 mM caffeic acid phenethyl ester, 0.2 M arginine, pH 4.0, relative to 0.01 mM compound alone
  Relative Inactivating Efficiency: >243 times
[2]; 0.1 mM caffeic acid phenethyl ester, 0.2 M arginine, pH 4.0, relative to 0.01 mM compound alone, listed as caffeic acid phenethyl ester
  Relative Inactivating Efficiency: more than 243 times
